Experimental data: ChEMBL document CHEMBL1201862, “PubChem BioAssay data set” (2004)
The source made the active and inactive calls.

Experiments:
[1] = HIV-1 AD8 envelope cell-cell fusion blockers – cherry-pick, dose response (AID 652062); type: functional, cell-based;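 note: luciferase signal from cell-cell fusion driven by HIV-1 clade B AD8 Env; potency is for inhibitors of fusion seen as a drop in luminescence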
[2] = off-target signal loss in HeLa-CEM21 co-culture – HeLa F-luc CTL cells, cherry-picked, counter-screen for HIV-1 Env fusion inhibitor project, dose response (AID 652040); type: functional, cell-based;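 note: potency for signal decrease marking cytotoxic or nonspecific inhibition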
[3] = viability of PTEN-deleted HCT116 cells – cell-based, HCT116 PTEN knockout, dose response (AID 1047); type: functional;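 note: HCT116 colon tumor cells with PTEN knocked out; cells exposed to compound for 60 hours before readout; potency for loss of cell viability measured by luminescence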
Phospholipase A2 = Phospholipase A2 (Homo sapiens, UniProt P04054); type: functional;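 note: confirmatory dose-response counterscreen on phospholipase A2, testing hits that came from an ultra-high-throughput screen for ATG4B inhibitors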
[4] = MIN6 cell viability loss – mouse insulinoma, cytotoxicity control, dose response (AID 2122); type: functional;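 note: confirmatory high-throughput counterscreen run to flag cytotoxic compounds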
[5] = decrease of insulin promoter-GFP reporter – imaging, high-content screening, mouse beta cells (AID 1628); type: functional; settings: MIN6
[6] = fluconazole-exposed Candida albicans growth modulators – fluorescence, retest, confirmation (AID 2467); type: functional, cell-based
[7] = blockers of HIV-1 ZM109 envelope-driven cell-cell fusion – HeLa effector, CEM target cells, luciferase, cherry-pick, dose response (AID 652058); type: functional, cell-based;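 note: luciferase signal from HIV-1 Env mediated cell-cell fusion of effector and target cells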
[8] = NIH-3T3 fibroblast cytotoxicity, dose response, cytotoxicity control, cell-based, fluorescence, Alamar Blue, secondary assay (AID 2327); type: functional;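 note: NIH-3T3 mouse fibroblasts cultured with fluconazole at 8 µg/mL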
[9] = viability loss in CEM21 cells – cell-based, CellTiter-Glo luminescence, cherry-picked, cytotoxicity control for viral fusion inhibitor project, dose response (AID 652042); type: functional;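 note: potency for signal decrease meaning cytotoxicity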
[10] = blockers of HIV-1 envelope-mediated cell-cell fusion – cherry-pick, dose response (AID 652057); type: functional, cell-based
[11] = viability of HCT116 lacking mutant beta-catenin – cell-based, human colon tumor, dose response (AID 1045); type: functional;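 note: HCT116 colon tumor cells with beta catenin knocked out; cells exposed to compound for 60 hours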
Cysteine protease ATG4B = target: T1, Cysteine protease ATG4B (Homo sapiens, UniProt Q9Y4P1); type: functional;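 note: Fluorescence-based dose-response confirmation assay measuring inhibition of ATG4B activity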
T1 sequence (Q9Y4P1 whole entry): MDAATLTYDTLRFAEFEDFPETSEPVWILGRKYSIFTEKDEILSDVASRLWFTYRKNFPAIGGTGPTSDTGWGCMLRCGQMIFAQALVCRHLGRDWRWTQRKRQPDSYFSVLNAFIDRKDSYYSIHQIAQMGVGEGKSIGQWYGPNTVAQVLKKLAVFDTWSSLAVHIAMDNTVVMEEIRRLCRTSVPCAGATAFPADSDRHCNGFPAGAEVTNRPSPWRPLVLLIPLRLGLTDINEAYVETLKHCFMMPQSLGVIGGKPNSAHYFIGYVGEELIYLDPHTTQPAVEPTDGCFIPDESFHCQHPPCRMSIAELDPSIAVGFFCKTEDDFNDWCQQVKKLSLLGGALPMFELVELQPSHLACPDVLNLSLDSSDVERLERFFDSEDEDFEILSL

X-box-binding protein 1 = X-box-binding protein 1 (Homo sapiens, UniProt P17861); type: functional, Cricetulus griseus;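 note: confirmatory dose-response counter-screen serving a CHOP assay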
[12] = target: T2, Ubiquitin-conjugating enzyme E2 N (Homo sapiens, UniProt P61088); type: functional;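 note: Dose-response confirmation in a TR-FRET assay detecting UBC13-driven polyubiquitin chain formation, inhibition measured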
T2 sequence (P61088 whole entry): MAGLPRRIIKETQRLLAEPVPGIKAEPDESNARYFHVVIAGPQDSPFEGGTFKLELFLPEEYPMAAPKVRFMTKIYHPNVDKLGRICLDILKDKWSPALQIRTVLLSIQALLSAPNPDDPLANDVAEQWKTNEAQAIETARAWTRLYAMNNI

[13] = target: Serine/threonine-protein phosphatase (Homo sapiens, UniProt Q9BPW0); assay: inhibition of protein phosphatase 5 activity – biochemical, fluorescence, dose response (AID 2395)
[14] = target: T3, Apoptotic protease-activating factor 1 (Homo sapiens, UniProt O14727); type: functional
T3 sequence (O14727 whole entry): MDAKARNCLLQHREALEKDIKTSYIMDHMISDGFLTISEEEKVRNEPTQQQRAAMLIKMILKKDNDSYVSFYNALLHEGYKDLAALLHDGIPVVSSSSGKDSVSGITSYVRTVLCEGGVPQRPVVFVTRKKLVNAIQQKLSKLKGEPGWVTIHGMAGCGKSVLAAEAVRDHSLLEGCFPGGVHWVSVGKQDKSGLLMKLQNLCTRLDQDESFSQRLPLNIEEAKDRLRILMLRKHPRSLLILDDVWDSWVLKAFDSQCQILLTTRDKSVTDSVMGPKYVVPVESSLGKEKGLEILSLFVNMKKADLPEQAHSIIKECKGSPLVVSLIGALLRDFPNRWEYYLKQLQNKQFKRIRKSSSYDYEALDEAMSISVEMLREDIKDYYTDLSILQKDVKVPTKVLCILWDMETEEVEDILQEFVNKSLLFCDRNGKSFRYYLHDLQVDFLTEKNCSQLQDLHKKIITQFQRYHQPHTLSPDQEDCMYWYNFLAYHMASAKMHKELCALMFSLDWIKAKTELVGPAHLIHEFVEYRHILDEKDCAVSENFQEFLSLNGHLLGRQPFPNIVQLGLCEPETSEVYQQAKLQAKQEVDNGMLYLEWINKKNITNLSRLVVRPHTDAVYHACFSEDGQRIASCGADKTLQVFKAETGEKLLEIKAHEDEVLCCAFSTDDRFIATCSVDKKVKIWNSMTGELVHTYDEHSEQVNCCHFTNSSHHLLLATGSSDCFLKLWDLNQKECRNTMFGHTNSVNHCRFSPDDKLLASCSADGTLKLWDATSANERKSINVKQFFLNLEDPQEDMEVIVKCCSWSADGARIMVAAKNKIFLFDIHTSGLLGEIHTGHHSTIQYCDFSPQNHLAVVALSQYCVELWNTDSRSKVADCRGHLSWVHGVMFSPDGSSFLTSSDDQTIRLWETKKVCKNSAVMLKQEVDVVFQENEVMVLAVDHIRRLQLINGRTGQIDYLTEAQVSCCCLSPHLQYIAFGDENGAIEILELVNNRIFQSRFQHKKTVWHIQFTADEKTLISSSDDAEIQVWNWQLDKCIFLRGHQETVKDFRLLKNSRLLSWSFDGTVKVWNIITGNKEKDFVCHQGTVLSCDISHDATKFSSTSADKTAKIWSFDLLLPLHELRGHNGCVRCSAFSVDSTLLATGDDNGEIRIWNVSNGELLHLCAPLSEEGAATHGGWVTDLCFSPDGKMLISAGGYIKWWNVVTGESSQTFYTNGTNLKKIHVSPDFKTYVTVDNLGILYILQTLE

INS1 = assay: INS-1E survival protection against cytokine death – cell-based, luminescence, retest, dose response (AID 449756); type: functional; settings: Rattus norvegicus;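 note: cell death triggered by IL-1 beta plus TNF-alpha plus IFN-gamma mixture; protective hits raise ATP signal compared with cytokine alone wells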
[15] = Trypanosoma cruzi growth suppression in host cells – NIH3T3 host cells, beta-gal luminescence, confirmation (AID 2044); type: functional, cell-based;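 note: intracellular parasites grown in NIH/3T3 mouse fibroblasts as host cells; luminescent beta-galactosidase reporter signal from transgenic T. cruzi replicating inside host cells; inhibitors lower the luminescence signal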
[16] = target: Heat shock protein HSP 90-alpha (Homo sapiens, UniProt P07900); assay: Luminescence-based dose response biochemical high throughput screening assay for inhibitors of the Heat Shock Protein 90 (HSP90). [Related pubchem assays: 1831 (Summary AID.), 1846 (Confirmation screen.), 1789 (Primary screen.)]
SUMO-activating enzyme [17] = target: T4, SUMO-activating enzyme (Homo sapiens, UniProt Q9UBT2); assay: blockers of UBC9-mediated SUMO conjugation – biochemical, AlphaScreen, SUMOylation inhibitor project, confirmation (AID 2018); type: functional
Hexokinase HKDC1 = target: T5, Hexokinase HKDC1 (Homo sapiens, UniProt Q2TB90); assay: inhibition of HKDC1 glucose phosphorylation – biochemical, W721R variant, dose response (AID 504729); type: functional
T5 sequence (Q2TB90 whole entry): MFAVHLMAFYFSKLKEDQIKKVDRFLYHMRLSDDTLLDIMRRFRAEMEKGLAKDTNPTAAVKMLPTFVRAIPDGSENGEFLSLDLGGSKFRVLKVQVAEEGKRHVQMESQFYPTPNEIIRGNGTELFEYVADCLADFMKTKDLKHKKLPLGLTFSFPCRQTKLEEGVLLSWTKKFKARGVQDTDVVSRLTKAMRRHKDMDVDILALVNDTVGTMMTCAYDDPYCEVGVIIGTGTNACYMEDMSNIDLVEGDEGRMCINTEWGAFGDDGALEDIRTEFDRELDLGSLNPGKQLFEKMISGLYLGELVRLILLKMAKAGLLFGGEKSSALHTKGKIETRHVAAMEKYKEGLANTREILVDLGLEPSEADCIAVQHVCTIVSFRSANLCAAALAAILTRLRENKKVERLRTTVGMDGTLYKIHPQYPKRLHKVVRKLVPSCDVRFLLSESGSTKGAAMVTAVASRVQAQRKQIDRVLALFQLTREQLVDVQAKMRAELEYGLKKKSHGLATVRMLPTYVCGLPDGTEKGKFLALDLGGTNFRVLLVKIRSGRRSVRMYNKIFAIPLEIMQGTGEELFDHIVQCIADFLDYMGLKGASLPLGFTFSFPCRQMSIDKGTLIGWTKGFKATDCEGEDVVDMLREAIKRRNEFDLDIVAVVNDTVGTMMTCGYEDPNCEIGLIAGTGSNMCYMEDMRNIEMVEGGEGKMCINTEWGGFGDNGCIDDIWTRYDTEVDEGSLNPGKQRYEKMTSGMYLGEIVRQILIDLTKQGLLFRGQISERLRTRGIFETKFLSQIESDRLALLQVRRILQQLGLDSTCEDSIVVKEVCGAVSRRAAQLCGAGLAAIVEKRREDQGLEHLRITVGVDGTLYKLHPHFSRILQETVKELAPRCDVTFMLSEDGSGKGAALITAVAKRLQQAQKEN

[18] = NIH3T3 cell viability loss – ATP luminescence, mouse fibroblasts, counter-screen, dose response (AID 2010); type: functional, cell-based;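 note: cells exposed to compound for about 90 hours before reading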
SUMO-activating enzyme [19] = target: T4, SUMO-activating enzyme; assay: blockers of SAE1/SAE2–UBC9 SUMO transfer – biochemical, HTRF, uHTS, primary screen (AID 2006); type: protein-complex assay
[20] = target: Serine/threonine-protein phosphatase PP1-alpha catalytic subunit (Homo sapiens, UniProt P62136); assay: inhibition of protein phosphatase 1 activity – biochemical, fluorescence, dose response (AID 2394)
[21] = target: T6, Mitochondrial peptide methionine sulfoxide reductase (Bos taurus, UniProt P54149); type: functional;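 note: absorbance read-out, biochemical high-throughput dose-response screen for MsrA inhibitors, confirmatory; recombinant bovine MsrA coupled to E. coli TrxB with NADPH and selenocystamine; potency is for inhibitors of MsrA activity on DMSO substrate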
T6 sequence (P54149 whole entry): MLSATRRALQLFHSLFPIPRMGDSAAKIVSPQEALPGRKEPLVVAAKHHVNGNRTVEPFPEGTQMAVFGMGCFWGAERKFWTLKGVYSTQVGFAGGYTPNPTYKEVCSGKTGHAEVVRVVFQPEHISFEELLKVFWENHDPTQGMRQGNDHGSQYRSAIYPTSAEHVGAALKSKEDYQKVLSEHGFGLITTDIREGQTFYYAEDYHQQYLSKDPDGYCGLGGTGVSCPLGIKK

T4 sequence (Q9UBE0 whole entry): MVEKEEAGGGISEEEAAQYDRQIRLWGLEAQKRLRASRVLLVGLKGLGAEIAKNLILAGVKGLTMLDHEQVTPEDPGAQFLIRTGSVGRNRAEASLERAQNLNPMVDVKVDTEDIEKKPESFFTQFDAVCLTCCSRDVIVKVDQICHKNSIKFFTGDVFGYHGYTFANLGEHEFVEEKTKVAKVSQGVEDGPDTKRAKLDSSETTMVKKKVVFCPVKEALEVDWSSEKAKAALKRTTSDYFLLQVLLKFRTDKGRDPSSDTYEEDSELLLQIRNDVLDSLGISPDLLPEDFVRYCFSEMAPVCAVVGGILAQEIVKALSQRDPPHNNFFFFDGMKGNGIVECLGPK
T4 sequence (Q9UBT2 whole entry): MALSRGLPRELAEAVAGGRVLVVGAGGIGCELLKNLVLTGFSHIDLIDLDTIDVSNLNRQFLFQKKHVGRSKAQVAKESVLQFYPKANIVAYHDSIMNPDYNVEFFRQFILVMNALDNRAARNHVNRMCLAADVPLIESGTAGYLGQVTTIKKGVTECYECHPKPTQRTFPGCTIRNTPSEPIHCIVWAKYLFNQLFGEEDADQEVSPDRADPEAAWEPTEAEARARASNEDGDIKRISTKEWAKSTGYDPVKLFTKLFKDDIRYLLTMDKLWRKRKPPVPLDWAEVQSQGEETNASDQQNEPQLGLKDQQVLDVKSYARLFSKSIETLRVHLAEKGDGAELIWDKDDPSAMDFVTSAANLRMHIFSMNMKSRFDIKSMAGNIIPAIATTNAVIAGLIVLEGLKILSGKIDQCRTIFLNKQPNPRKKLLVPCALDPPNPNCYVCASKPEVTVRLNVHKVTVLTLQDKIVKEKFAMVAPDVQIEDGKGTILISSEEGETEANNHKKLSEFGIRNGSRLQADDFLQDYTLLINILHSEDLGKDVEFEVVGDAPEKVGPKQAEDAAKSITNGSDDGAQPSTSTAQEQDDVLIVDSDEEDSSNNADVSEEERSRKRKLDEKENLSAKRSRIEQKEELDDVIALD
Chain of Phospholipase A2 (P04054 whole entry): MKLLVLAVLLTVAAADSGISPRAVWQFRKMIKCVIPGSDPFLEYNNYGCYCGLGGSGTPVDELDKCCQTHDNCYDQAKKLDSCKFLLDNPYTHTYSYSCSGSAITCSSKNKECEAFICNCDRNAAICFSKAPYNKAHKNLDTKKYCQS
Chain of X-box-binding protein 1 (P17861 whole entry): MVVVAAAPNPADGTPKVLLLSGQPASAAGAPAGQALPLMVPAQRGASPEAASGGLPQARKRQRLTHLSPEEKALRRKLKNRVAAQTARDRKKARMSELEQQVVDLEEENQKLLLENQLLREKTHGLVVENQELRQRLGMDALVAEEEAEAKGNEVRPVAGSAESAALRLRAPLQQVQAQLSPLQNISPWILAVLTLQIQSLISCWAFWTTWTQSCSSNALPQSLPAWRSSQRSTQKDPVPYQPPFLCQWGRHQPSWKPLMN
Chain of Serine/threonine-protein phosphatase PP1-alpha catalytic subunit (P62136 whole entry): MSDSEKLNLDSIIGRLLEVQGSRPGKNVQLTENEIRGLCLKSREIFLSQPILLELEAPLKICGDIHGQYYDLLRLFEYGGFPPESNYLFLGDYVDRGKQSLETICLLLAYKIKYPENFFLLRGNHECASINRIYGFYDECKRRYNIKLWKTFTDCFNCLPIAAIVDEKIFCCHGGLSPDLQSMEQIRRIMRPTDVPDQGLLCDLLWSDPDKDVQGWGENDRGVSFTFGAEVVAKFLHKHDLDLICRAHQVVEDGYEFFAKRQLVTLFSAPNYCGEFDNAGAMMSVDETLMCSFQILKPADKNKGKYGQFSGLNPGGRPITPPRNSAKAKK
Chain of Serine/threonine-protein phosphatase (Q9BPW0 whole entry): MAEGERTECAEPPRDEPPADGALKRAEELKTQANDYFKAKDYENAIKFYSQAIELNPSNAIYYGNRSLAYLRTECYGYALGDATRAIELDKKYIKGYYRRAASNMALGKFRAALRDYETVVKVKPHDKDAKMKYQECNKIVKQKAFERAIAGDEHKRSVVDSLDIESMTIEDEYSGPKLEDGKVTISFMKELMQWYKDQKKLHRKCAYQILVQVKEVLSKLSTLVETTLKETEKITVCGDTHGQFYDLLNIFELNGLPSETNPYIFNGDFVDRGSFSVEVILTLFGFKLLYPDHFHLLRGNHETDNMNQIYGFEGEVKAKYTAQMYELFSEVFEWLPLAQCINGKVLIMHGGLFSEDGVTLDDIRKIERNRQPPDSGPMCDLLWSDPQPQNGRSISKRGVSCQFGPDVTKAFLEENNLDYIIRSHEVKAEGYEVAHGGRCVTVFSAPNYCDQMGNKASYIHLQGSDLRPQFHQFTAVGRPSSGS

Cc1cc(Nc2ccc(Cl)cc2)nc(NCc2ccccc2)n1
AC50 [1]: 8.5 µM (active)
AC50 [2]: 4.05 µM (active)
EC50 [3]: 5.72 µM (active)
IC50 (Phospholipase A2): 15.4 µM (active)
IC50 [4]: 0.878 µM (active)
IC50 [5]: 1.51 µM (active)
EC50 [6]: 2.45 µM (active)
AC50 [7]: 3.31 µM (active)
EC50 [8]: > 150 µM (inactive)
AC50 [9]: 15.3 µM (active)
AC50 [10]: 2.98 µM (active)
EC50 [11]: 6.7 µM (active)
IC50 (Cysteine protease ATG4B): 10.9 µM (active)
Absolute IC50 (XBP1) (X-box-binding protein 1): < 10 µM
IC50 [12]: > 20 µM (inactive)

CC(=O)Nc1ccc(NC2=C/C(=N/S(=O)(=O)c3cccs3)c3ccccc3C2=O)cc1
IC50 [13]: 12.3 µM (not active)
IC50 [14]: 1.48 µM (active)
AC50 (INS1): 4.23 µM (active)
EC50 [15]: 3.44 µM (active)
IC50 [16]: 1.61 µM (active)
IC50 (SUMO-activating enzyme [17]): 1.34 µM (active)
IC50 (Hexokinase HKDC1): 3.72 µM (active)
EC50 [18]: 3.58 µM (active)
IC50 (SUMO-activating enzyme [19]): > 100 µM (inactive)
IC50 [20]: > 67 µM (not active)
IC50 [21]: 14.3 µM (inactive)
